The record followed here is patent publication US11312727B1, “Macrocyclic flu endonuclease inhibitors” (Janssen BioPharma, Inc., priority 2018, dated 2022).

Where two headings read alike, the source gives them in different places. Bounds are passed on as bounds.

A word on the EC50: it is the midpoint of the concentration-response curve. By CC50 is commonly meant the concentration giving 50% cytotoxicity. A low value points to harm at low concentration.

Data set [1] relates to Influenza strain A549 A/WSN/33 (H1N1). Kind of data set: microbe, parasite or virus in culture. In kind it is cell-based. The following applies: Influenza A virus, A549, 20 h, A549 cells, influenza A/WSN/33 (H1N1), 20 hours incubation; read-out: A549_A(H1N1) EC50.
Another data set can be described thus: in vitro. The following applies: human, CC50, uninfected A549 cells, CellTiter-Glo.

In the case of `O=C1c2c(OCc3ccccc3)c(=O)ccn2N2CN1CCC=CCc1ccccc1C2c1ccccc1` (stereo not shown), the ring closure, yield of all isomers (from C=CCCN1CN(C(c2ccccc2)c2ccccc2CC=C)n2ccc(=O)c(OCc3ccccc3)c2C1=O, rcm bond, Hoveyda-Grubbs 2nd generation, DCE, 12.7 mM, 80.0 °C, 3.0 h) is 69.2%. With `O=C1c2c(OCc3ccccc3)c(=O)ccn2N2CN1CC=CCCOc1cccc(c1)C2c1ccccc1` (stereo not shown), where the note is “from C=CCCOc1cccc(C(c2ccccc2)N2CN(CC=C)C(=O)c3c(OCc4ccccc4)c(=O)ccn32)c1, rcm bond, Hoveyda-Grubbs 2nd generation, DCE, 12.1 mM, 90.0 °C, […]”, the ring closure, yield of all isomers stood at 8.9%. Regarding `O=C1CCN2CN(C(c3ccccc3)c3ccccc3CN1)n1ccc(=O)c(OCc3ccccc3)c1C2=O` (stereo not shown), the ring closure, yield of all isomers (from NCc1ccccc1C(c1ccccc1)N1CN(CCC(=O)O)C(=O)c2c(OCc3ccccc3)c(=O)ccn21, amide bond, HATU, DMF, […], 80.0 °C) came to 51.7%. For the setting “from C=CCOc1ccccc1C(c1ccccc1)N1CN(CC=C)C(=O)c2c(OCc3ccccc3)c(=O)ccn21, rcm bond, Hoveyda-Grubbs 2nd generation, DCE, […], 80.0 °C, 2.0 h”, `O=C1c2c(OCc3ccccc3)c(=O)ccn2N2CN1CC=CCOc1ccccc1C2c1ccccc1` (stereo not shown) came in with a ring closure, yield of all isomers of 21.4%. Consider `O=C1c2c(OCc3ccccc3)c(=O)ccn2N2CN1CCC=CCOc1cccc3c1C2c1ccccc1SC3` (stereo not shown), for which, under “from C=CCCN1CN(C2c3ccccc3SCc3cccc(OCC=C)c32)n2ccc(=O)c(OCc3ccccc3)c2C1=O, rcm bond, Hoveyda-Grubbs catalyst 2nd generation, DCE, 13.86 mM, 80.0 °C, […]”, the ring closure, yield of all isomers amounted to 19.8%. Regarding `O=C1c2c(O)c(=O)ccn2N2CN1C/C=C\COc1cc(Cl)ccc1[C@H]2c1ccccc1` (single isomer, unassigned) [Compound 72A, (18*R,Z)-3-chloro-12-hydroxy-18-phenyl-6,9-dihydro-18H-10,17-methanobenzo[b]pyrido[1,2-f][1]oxa[5,6,9]triazacyclotridecine-11,13-dione], the EC50 in data set [1] is more than 1000 nM. Further, the CC50 in “in vitro” is more than 2000 nM. Consider `O=C1c2c(O)c(=O)ccn2N2CN1CCCCCCOc1ccccc1C2c1ccccc1` (stereo not shown) [Compound 55, 15-hydroxy-2-phenyl-12,13,14,16-tetrahydro-11H-4-oxa-1(1,3)-pyrido[2,1-f][1,2,4]triazina-3(1,2)-benzenacyclodecaphane-14,16-dione], for which the EC50 in data set [1] turned out to be 880 nM. The compound further came in with a CC50 in the data set “in vitro” of more than 2000 nM. With `O=C1c2c(O)c(=O)ccn2N2CN1CCC=CCOc1c(F)cccc1[C@@H]2c1ccccc1` (single isomer, unassigned) [Compound 84B, (19*S, E/Z)-4-fluoro-13-hydroxy-19-phenyl-9,10-dihydro-6H,19H-11,18-methanopyrido[2,1-i][1,7,10,11]benzoxatriazacyclotetradecine-12,14-dione], the EC50 in data set [1] is 5 nM. The compound also registered a CC50 in the data set “in vitro” of more than 200 nM. As to `O=C1c2c(O)c(=O)ccn2N2CN1CCCCCc1ncccc1[C@H]2c1ccccc1` (single isomer, unassigned) [Compound 23A, (18*R)-12-hydroxy-18-phenyl-5,6,7,8,9,18-hexahydro-10,17-methanodipyrido[1,2-b:2′,3′-k][1,2,5]triazacyclotridecine-11,13-dione], in data set [1], the EC50 came to 55000 nM. Also, the CC50 in the data set “in vitro” was more than 10000 nM. On the same counts, the results for `O=C1c2c(O)c(=O)ccn2N2CN1CC/C=C\CCOc1ccccc1[C@H]2c1ccccc1` (single isomer, unassigned) [Compound 65C, (2*R,*E)-15-hydroxy-2-phenyl-12,13,14,16-tetrahydro-11H-4-oxa-1(1,3)-pyrido[2,1-f][1,2,4]triazina-3(1,2)-benzenacyclodecaphan-7-ene-14,16-dione] are 7890 nM and more than 20000 nM. As to `O=C1c2c(O)c(=O)ccn2N2CN1C/C=C\COc1c(F)cccc1[C@H]2c1cccc(F)n1` (single isomer, unassigned) [Compound 104B, (18*S,*Z)-4-fluoro-18-(6-fluoropyridin-2-yl)-12-hydroxy-6,9-dihydro-18H-10,17-methanobenzo[b]pyrido[1,2-f][1]oxa[5,6,9]triazacyclotridecine-11,13-dione], in data set [1], the EC50 was more than 100 nM. Also, in “in vitro”, the CC50 is more than 200 nM.

Turning to `CC[C@H]1/C=C/COc2c(ccc(Cl)c2Cl)[C@@H](c2ccccc2)N2CN1C(=O)c1c(O)c(=O)ccn12` (single isomer, unassigned) [Compound 121AB, (9*S,18*R,*E)-3,4-dichloro-9-ethyl-12-hydroxy-18-phenyl-6,9-dihydro-18H-10,17-methanobenzo[b]pyrido[1,2-f][1]oxa[5,6,9]triazacyclotridecine-11,13-dione], the EC50 in data set [1] was more than 100 nM. Further, the CC50 in “in vitro” was more than 200 nM. In the case of `O=C1c2c(O)c(=O)ccn2N2CN1C/C=C\COc1c(F)cccc1[C@@H]2c1ccccc1` (single isomer, unassigned) [Compound 61B, (18*S,Z)-4-fluoro-12-hydroxy-18-phenyl-6,9-dihydro-18H-10,17-methanobenzo[b]pyrido[1,2-f][1]oxa[5,6,9]triazacyclotridecine-11,13-dione], in data set [1], the EC50 was 155 nM. The same compound yielded a CC50 in “in vitro” of more than 2000 nM. As for `O=C1c2c(O)c(=O)ccn2N2CN1[C@@H](C(F)F)/C=C/COc1cccc3c1[C@@H]2c1ccccc1SC3` (single isomer, unassigned) [Compound 163BA, (9*R,17a*R,*E)-9-(difluoromethyl)-12-hydroxy-2,6,9,17a-tetrahydro-3,4-(epiprop[1]en[1]yl[3]ylidene)-10,17-methanobenzo[6,7]thiepino[4,5-c]pyrido[1,2-f][1]oxa[5,6,9]triazacyclotridecine-11,13-dione], the EC50 in data set [1] is more than 50 nM. For the same compound, the CC50 in “in vitro” was more than 100 nM. With `O=C1c2c(O)c(=O)ccn2N2CN1CC[C@@H]1C[C@H]1COc1cccc3c1[C@@H]2c1ccccc1SC3` (single isomer, unassigned) [Compound 131AA, (1*R,13*S,15*R)-7-hydroxy-17-oxa-24-thia-2,3,10-triazaheptacyclo[16.12.1.12,10.03,8.013,15.022,31.025,30]dotriaconta-4,18,20,22(31),25(30),26,28-heptaene-6,9-dione], the EC50 in data set [1] turned out to be 4.7 nM. The compound also had a CC50 in “in vitro” of more than 200 nM.

Consider `O=C1c2c(O)c(=O)ccn2N2CN1C[C@@H]1C[C@H]1COc1c(ccc(F)c1F)[C@@H]2c1ccccc1` (single isomer, unassigned) [Compound 139AB, (1a*R,8*S,17a*R)-4,5-difluoro-14-hydroxy-8-phenyl-1a,2,17,17a-tetrahydro-1H,8H-9,16-methanobenzo[b]cyclopropa[k]pyrido[1,2-f][1]oxa[5,6,9]triazacyclotridecine-13,15-dione], for which, in data set [1], the EC50 stood at 4890 nM. In addition, the CC50 in “in vitro” was determined as 35900 nM. The matching figures for `O=C1c2c(O)c(=O)ccn2N2CN1CCCCCCc1ccccc1C2c1ccccc1` (stereo not shown) [Compound 2, 15-hydroxy-2-phenyl-12,13,14,16-tetrahydro-11H-1(1,3)-pyrido[2,1-f][1,2,4]triazina-3(1,2)-benzenacyclononaphane-14,16-dione]: 354 nM and more than 20000 nM. `O=C1c2c(O)c(=O)ccn2N2CN1C/C=C\COc1ccc(F)cc1[C@H]2c1cccc(F)c1` (single isomer, unassigned) [Compound 25A, (18*R,Z)-2-fluoro-18-(3-fluorophenyl)-12-hydroxy-6,9-dihydro-18H-10,17-methanobenzo[b]pyrido[1,2-f][1]oxa[5,6,9]triazacyclotridecine-11,13-dione]: the EC50 in data set [1] turned out to be 9800 nM. The same compound had a CC50 in the data set “in vitro” of more than 2000 nM. Turning to `O=C1c2c(O)c(=O)ccn2N2CN1CCOCCOc1ccccc1[C@H]2c1ccccc1` (single isomer, unassigned) [Compound 99A, (2*R)-18-hydroxy-2-phenyl-9,12-dioxa-1,15,22-triazatetracyclo[13.7.1.03,8.017,22]tricosa-3,5,7,17,20-pentaene-16,19-dione], the 50% effective concentration (EC50) in data set [1] was more than 500 nM. Also, the half-maximal cytotoxic concentration (CC50) in “in vitro” was more than 1000 nM. With `CC[C@H]1/C=C/COc2c(ccc(F)c2F)[C@@H](c2ccccn2)N2CN1C(=O)c1c(O)c(=O)ccn12` (single isomer, unassigned) [Compound 160AA, (9*S,18*S,*E)-9-ethyl-3,4-difluoro-12-hydroxy-18-(pyridin-2-yl)-6,9-dihydro-18H-10,17-methanobenzo[b]pyrido[1,2-f][1]oxa[5,6,9]triazacyclotridecine-11,13-dione], the EC50 in data set [1] worked out at 5.2 nM. Moreover, the CC50 in “in vitro” was more than 100 nM. In the case of `O=C1c2c(O)c(=O)ccn2N2CN1CC/C=C/COc1cccc3c1[C@H]2c1cccc(F)c1SC3` (single isomer, unassigned) [Compound 137B, (1*S,13*E)-25-fluoro-7-hydroxy-16-oxa-23-thia-2,3,10-triazahexacyclo[15.12.1.12,10.03,8.021,30.024,29]hentriaconta-4,7,13,17,19,21(30),24(29),25,27-nonaene-6,9-dione], the EC50 in data set [1] was 5.3 nM. Besides, in the data set “in vitro”, the CC50 is more than 200 nM. On the same counts, the results for `O=C1c2c(O)c(=O)ccn2N2CN1C[C@@H]1C[C@@H]1COc1cccc3c1[C@H]2c1ccccc1SC3` (single isomer, unassigned) [Compound 118AB, (1a*S,11b*S,20a*R)-17-hydroxy-1a,2,6,11b,17,17a,20,20a-octahydro-1H-5,4-(epiprop[1]en[1]yl[3]ylidene)-12,19-methanobenzo[6,7]thiepino[4,5-c]cyclopropa[k]pyrido[1,2-f][1]oxa[5,6,9]triazacyclotridecine-16,18-dione] are 10 nM and more than 200 nM. On to `O=C1c2c(O)c(=O)ccn2N2CN1CCCCOc1c(ccc(F)c1F)[C@H]2c1ccccc1` (single isomer, unassigned) [Compound 115A, (18*R)-3,4-difluoro-12-hydroxy-18-phenyl-6,7,8,9-tetrahydro-18H-10,17-methanobenzo[b]pyrido[1,2-f][1]oxa[5,6,9]triazacyclotridecine-11,13-dione], for which the EC50 in data set [1] was more than 100 nM. The compound also came in with a CC50 in “in vitro” of more than 200 nM.

Regarding `O=C1c2c(O)c(=O)ccn2N2CN1C/C=C\CCOc1ccccc1C2c1ccccc1` (stereo not shown) [Compound 19, (*Z)-15-hydroxy-2-phenyl-12,13,14,16-tetrahydro-11H-4-oxa-1(1,3)-pyrido[2,1-f][1,2,4]triazina-3(1,2)-benzenacyclononaphan-7-ene-14,16-dione], in data set [1], the EC50 amounted to 260 nM. Besides, in “in vitro”, the CC50 was more than 2000 nM.
